Measured values as given in publication PMC5538626, “Structural and functional analysis of the GABARAP interaction motif (GIM)” (EMBO Reports, 2017).
Entries after “also recorded” stand apart in the source; their conditions may differ. Marks after values point to notes of the source that are not given here. Ends that are not written are not given here.

Assays:
LC3 and GABARAP families = conditions: cited from earlier work
Text: However, despite the ever‐increasing number of LC3/GABARAP interaction partners identified and perhaps the over‐reliance on LC3B as the main marker of autophagosomes, there is now emerging distinct roles of each LC3 and GABARAP subfamily. For example, both LC3 and GABARAP families are essential for autophagy flux 29; however, LC3s were reported to be involved in phagophore extension and GABARAPs required for autophagosome closure 29. Moreover, GABARAP can activate ULK1 complex to initiate autophagy, irrespective of its conjugation status 28. Indeed, this is also reflected in C. elegans homolog ...

[1] = tested on: 6xHis-tagged LC3B and 6xHis-tagged GABARAP; assay: Peptide array, preference GABARAP versus LC3B (absorbance ratio); assay type: binding, human; conditions: absorbance GABARAP/LC3B or LC3B/GABARAP, cut-off 1.5-fold, mean of n = 3, Figs 1A, EV1B and C
Text: A high number of autophagy receptors or adaptor structures have been reported, yet the basis for their selective interaction with individual members of the ATG8 family is not well understood. We speculated whether the LIR motif alone is able to confer selectivity towards a mATG8 subfamily and whether we could derive a subfamily consensus motif from analysis of known mATG8 interaction partners. To address this question, we screened an array of peptides (presented in Fig EV1A and described in Materials and Methods) with the LIR sequences of 30 known and validated autophagy receptors and adaptors (Table 1) against all six human mATG8s for binding (Figs 1A and EV1B and C). In brief, biotinylated peptides were immobilized on streptavidin‐coated 96‐well plates and incubated with His6‐tagged mATG8 proteins. After washing steps, peptide‐bound mATG8 was detected in an ELISA reader using anti‐His antibodies directly conjugated to HRP (horse radish peroxidase; Fig EV1A).
Dashed red line depicts 1.5‐fold change cut‐off.
Due to the wide range of affinities of various LIR sequences towards the LC3/GABARAP proteins, we have normalized our results by dividing values for LC3B interaction by the corresponding value for interaction with GABARAP (Fig 1A, purple bars) and vice versa (Fig 1A, blue bars) to highlight the potential subfamily selectivity of each LIR sequence tested. We classified ratios greater than 1.5‐fold as an indication of a preferential interaction towards that particular LC3 or GABARAP family member. […] Using this information, we generated a sequence plot (Fig 1B) to ascertain whether there were any common sequence features of the GABARAP‐specific interaction proteins. In addition to the 12 sequences identified in this experiment as preferential GABARAP subfamily interactors, we also included known GABARAP interactors that were not included in our screen (ALFY and KBTBD7). […] The previously identified PLEKHM1‐LIR 19 has a high degree of similarity to this sequence. […] However, it is unclear whether this is the case in vivo.
Biotinylated peptides (JPT, Germany) were immobilized on streptavidin‐coated 96‐well plates (#436014; Thermo Scientific) in 100 μl PBS containing 0.1% Tween‐20 (PT) and 1% BSA (PTB) overnight on a shaker at 8°C. After three washing steps with 200 μl PT, 100 μl of 1 μM HIS6‐tagged mATG fusion proteins isolated from E. coli in PTB was incubated with the immobilized peptides for 1 h at 8°C. After three washing steps with 200 μl PT, HIS6‐ATG8 bound to peptides was detected after 1‐h incubation with anti‐HIS‐HRP antibody (JP‐A00612; Genscript; 1:5,000 in 100 μl PTB) with the help of TMB substrate Reagent Set (BD OptEIA; 75 μl). The reaction (blue coloration) was stopped by addition of 60 μl 1 M H3PO4. Samples were analysed on a Synergy H1 ELISA reader from BioTek at 450 nm.

all six mATG8 proteins = assay: Peptide array (ELISA), all six mATG8s; conditions: 450 nm, Fig 3E, n = 4
6xHis-tagged LC3B = assay: Peptide array (ELISA), LC3B; conditions: mean ± SEM n = 5, Fig 4B
LC3B = biological target: T1, LC3B (Homo sapiens, UniProt Q9GZQ8); assay: ITC titration of PLEKHM1-LIR peptides into LC3B; assay type: binding; conditions: for ΔH: VP-ITC, 50 mM Na2HPO4, 100 mM NaCl
T1 construct: modified Ub-leader (ubiquitin fusion leader) (N); made in house; host or cells: E. coli NEB T7 Express
Protocol: (§1) The genes for the truncated LC3A^2–121, LC3C^8–125, GABARAP^2–117 and GABARAP‐L1^2–117 proteins were cloned into pET30ΔSE vector between the BamHI and XhoI sites using previously established protocols 38. The chimeric constructs of the PLEKHM1‐LIR attached to the LC3A, GABARAP and GABARAP‐L1 proteins were prepared by inserting the oligonucleotide sequence corresponding to the PLEKHM1‐LIR peptide (P^629[…]^638) and glycine–serine linker into the BamHI site of the pET30ΔSE vector, placing the PLEKHM1‐LIR at the N‐terminal of the mature chimeric protein (similar to 31, 38). For the expression of human LC3 and GABARAP proteins for ITC and NMR experiments, plasmids with appropriate modified Ub‐leaders in pET vectors were used 39. Gene, encoding PLEKHM1‐LIR peptide, was ordered as synthetic oligonucleotides (Eurofins Genomics GmbH) and cloned into the pET39_Ub63_ vector 39 by NcoI–BamHI restriction sites. After TEV cleavage, the resulting peptide has the amino acid sequence GAMG‐P^629[…]^642, where the first four residues (GAMG) are the cloning artefact.
(§2) The chimeric constructs were expressed as a His‐tag fusion protein in E. coli BL21(DE3) cells. The cells were induced with 0.3 mM IPTG at OD600 0.6 for 16 h at 26°C. The cell pellets were lysed using mechanical sonication in lysis buffer (20 mM Tris–HCl pH 9.0, 100 mM NaCl, 10 mM imidazole, supplemented with 0.1% Triton X‐100). The proteins were purified using Ni‐NTA beads (GE Healthcare) and the His‐tag was cleaved using thrombin (Invitrogen) at room temperature for 16 h. The last step was gel filtration chromatography using a Superdex S200/300 GL column (GE Healthcare). The proteins were concentrated using spin concentrators (Vivaspin). For ITC and NMR studies, the non‐labelled and stable isotopes labelled LC3 and GABARAP proteins were obtained based on the protocols described elsewhere 30, 39. Here, E. coli NEB T7 Express culture transformed with corresponding plasmids were grown till OD600 nm = 1.0 and protein expression was induced with 0.2 mM IPTG. The cultures were incubated at 25°C for 8–12 h before cell harvesting. Isolation and purification procedures were similar to those reported in Ref. 22, 40. Before experiments, all proteins and peptides were equilibrated with a buffer containing 50 mM Na2HPO4, 100 mM NaCl at pH 7.0, and supplied with 5 mM protease inhibitor cocktail.
(§3) The protocol for preparation of non‐labelled and ^13C,^15N‐labelled PLEKHM1‐LIR peptide was slightly modified to achieve highest yield of the peptide. The 50 ml M9 culture was inoculated with NEB T7 cell transformed with pET39_Ub63‐PLEKHM1‐LIR plasmid and grown overnight at 37°. The collected cells were resuspended in 2 l of either LB or M9 media contained 1.5 g ^15N‐labelled NH4Cl and 3.0 g of ^13C‐labelled glucose. The cultures were grown at 37° till A(600 nm) = 0.9 and supplied with 1 mM of IPTG to induce Ub63‐PLEKHM1‐LIR overexpression (3 h at 37°). After that cells were harvested by centrifugation, re‐suspended in buffer contained 50 mM Tris–HCl pH = 7.9, 200 mM NaCl, 5% glycerol, 0.1 mg/ml DNase A and 4 mM protease inhibitor cocktail. After cell lysis by French press, debris was removed by centrifugation and clear supernatant was applied onto the column contained Ni‐NTA Sepharose equilibrated with the loading buffer (50 mM Tris–HCl pH = 7.9, 250 mM NaCl, 1% glycerol and 20 mM imidazole). Elution was performed with 400 mM imidazole in the same buffer. An aliquot of pure Ub63‐PLEKHM1‐LIR fractions was further purified by gel filtration on Superdex75 26 × 60 column for control ITC and analytical size exclusion chromatography experiments, remaining fusion protein was processed with the TEV‐protease and PLEKHM1‐LIR peptide was purified to 95% purity by reverse Ni‐NTA chromatography and followed gel filtration on Superdex75 26 × 60 column. Peak maximum of peptide was detected at […] (void volume 115 ml). Pure peptide was concentrated in Amicon concentrators with cut‐off of 3 kDa (> 95% retention). […]

GABARAP = biological target: T2, GABARAP (Homo sapiens, UniProt O95166); assay: ITC titration of PLEKHM1-LIR peptides into GABARAP; assay type: binding; conditions: for ΔH: VP-ITC, one-site model, 0.4 mM peptide into 0.020 mM protein, 50 mM Na2HPO4, 100 mM NaCl
T2 construct: modified Ub-leader (ubiquitin fusion leader) (N); made in house; host or cells: E. coli NEB T7 Express
Protocol: as §1, §2, §3

[2] = ITC, 25°C, one-site model, 0.4 mM peptide into 0.020 mM protein, pH 7.0
[3] = weak interaction: N fixed to 1 upon fitting

T2 sequence (O95166 whole entry, the tested form may be a part): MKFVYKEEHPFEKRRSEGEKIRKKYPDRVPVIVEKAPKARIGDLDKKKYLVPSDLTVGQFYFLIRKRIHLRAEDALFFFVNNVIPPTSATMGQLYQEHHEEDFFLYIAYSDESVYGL

## DAVFDIITD [FYCO1, LIR peptide 1277–1285; in b48 the protein]
LC3 and GABARAP families
  subfamily specificity: LC3A‐specific adaptor

## DDFWVRVAP [KTBD6, LIR peptide 665–673]
[1]; listed as KBTBD6
  preference GABARAP versus LC3B: strong preference for GABARAP versus LC3B
[1]; listed as KBTDB6
  preference GABARAP versus LC3B: clear specificity towards GABARAP versus LC3B

## DDSYEVLDL [FUNDC1, LIR peptide 152–160 (so in the source)]
[1]
  preference GABARAP versus LC3B: preferentially interacted with the LC3 group; also recorded: only LC3‐selective LIR; also recorded: only LC3B‐specific LIR

## EDEAVNAQY [W635A/V638A, reference compound]
All six mATG8 proteins
  interaction with all mATG8s, alanine scan: completely disrupted all LIR–mATG8 interactions

## EDEWCFLQY
6xHis-tagged LC3B
  interaction with LC3B, core motif combinations: increased the interaction of PLEKHM1‐LIR with LC3B

## EDEWCILQY [WCIL]
LC3B; ITC, 25°C, pH 7.0, 0.4 mM peptide into 0.020 mM protein, one-site model
  Kd: 0.3 µM

## EDEWCVLQY
6xHis-tagged LC3B
  interaction with LC3B, core motif combinations: increased the interaction of PLEKHM1‐LIR with LC3B

## EDSFVEIRM [OPTN, LIR peptide 175–183]
LC3 and GABARAP families; TBK1 phosphorylation at S177
  subfamily preference after phosphorylation: switches to LC3B
LC3 and GABARAP families; unmodified state
  subfamily preference: clearly shows preference for GABARAP

## ESDWVAVRP [JMY, LIR peptide 10–18]
[1]
  preference GABARAP versus LC3B: strong preference for GABARAP versus LC3B

## GAMGPQQEDEAVNVQYPD [PLEKHM1‐LIR W635A]
LC3B; [2]
  ΔH: -3.3 ± 0.42 kJ/mol
LC3B; ITC, 25°C, pH 7.0
  ΔG: -22.8 kJ/mol
  ΔS: +15.4 cal mol^−1 K^−1
  −T × ΔS: -19.2 kJ/mol
LC3B; [3]
  N (number of binding sites): 1 ^a
GABARAP; ITC, 25°C, pH 7.0
  ΔH: -4.6 ± 0.42 kJ/mol
  ΔG: -22.6 kJ/mol
  ΔS: +14.4 cal mol^−1 K^−1
  −T × ΔS: -17.9 kJ/mol
GABARAP; [3]
  N (number of binding sites): 1 ^a

## GAMGPQQEDEWCILQYPD [PLEKHM1‐LIR VNV‐CIL]
LC3B; [2]
  ΔH: -33.1 ± 0.42 kJ/mol
LC3B; ITC, 25°C, pH 7.0
  KA: 3.03 ± 0.27 ×10^6 M^−1
  N (number of binding sites): 1.06 ± 0.01
  ΔG: -37 kJ/mol
  ΔS: +3.30 cal mol^−1 K^−1
  −T × ΔS: -4.1 kJ/mol
GABARAP; ITC, 25°C, pH 7.0
  ΔH: -38.5 ± 0.42 kJ/mol
  KA: 11.3 ± 0.38 ×10^6 M^−1
  N (number of binding sites): 1.07 ± 0.01
  ΔG: -40.3 kJ/mol
  ΔS: +1.49 cal mol^−1 K^−1
  −T × ΔS: -1.84 kJ/mol

## GAMGPQQEDEWGNVQYPD [PLEKHM1‐LIR V636G]
LC3B; [2]
  ΔH: -7.11 ± 0.42 kJ/mol
LC3B; ITC, 25°C, pH 7.0
  ΔG: -22.7 kJ/mol
  ΔS: +12.4 cal mol^−1 K^−1
  −T × ΔS: -15.5 kJ/mol
LC3B; [3]
  N (number of binding sites): 1 ^a
GABARAP; ITC, 25°C, pH 7.0
  ΔH: -31.4 ± 0.42 kJ/mol
  KA: 0.02 ± 0.00 ×10^6 M^−1
  ΔG: -24.4 kJ/mol
  ΔS: −5.66 cal mol^−1 K^−1
  −T × ΔS: +1.69 kcal mol^−1
GABARAP; [3]
  N (number of binding sites): 1 ^a

## GAMGPQQEDEWVGVQYPD [PLEKHM1‐LIR N637G]
LC3B; [2]
  ΔH: -5.86 ± 0.42 kJ/mol
LC3B; ITC, 25°C, pH 7.0
  KA: 0.02 ± 0.01 ×10^6 M^−1
  ΔG: -24.6 kJ/mol
  ΔS: +15.0 cal mol^−1 K^−1
  −T × ΔS: -18.7 kJ/mol
LC3B; [3]
  N (number of binding sites): 1 ^a
GABARAP; ITC, 25°C, pH 7.0
  ΔH: -28 ± 0.42 kJ/mol
  KA: 0.13 ± 0.01 ×10^6 M^−1
  N (number of binding sites): 1.17 ± 0.04
  ΔG: -29.2 kJ/mol
  ΔS: +1.07 cal mol^−1 K^−1
  −T × ΔS: -1.34 kJ/mol

## SEDYIIILP [NBR1, LIR peptide 729–737]
LC3 and GABARAP families
  subfamily specificity: GABARAP‐L1‐specific receptor

## TDDFVLVPH [ULK2, LIR peptide 350–358]
[1]
  preference GABARAP versus LC3B: clear specificity towards GABARAP versus LC3B

## TDDFVMVPA [ULK1, LIR peptide 354–362]
[1]
  preference GABARAP versus LC3B: clear specificity towards GABARAP versus LC3B
